Columns and labels:
[1] = Organoleptic characteristics of the active ingredient as noted by the inventors; conditions: for irritation of the mucosae: unmasked active ingredient, oropharynx
[2] = Solubility in saliva; format: physicochemical

| Compound | irritant effect in the oral cavity ([1]; attempts to modify the pH of the pharmaceutical preparation) | irritation of the mucosae [1] | solubility in saliva [2] |
| --- | --- | --- | --- |
| C[C@H](NCc1ccc(OCc2cccc(F)c2)cc1)C(N)=O [safinamide methanesulfonate, Safinamide methanesulfonate] | did not lead to a reduction of the irritant effect | pronounced tendency to irritate the mucosae of the first section of the oropharynx | fairly soluble in saliva |
| (2 S)-2-[[4-[(3-fluorophenypmethoxy]phenyl]methyl amino]propanamide [safinamide] |  | pronounced tendency to irritate the mucosae of the first section of the oropharynx |  |

Reference: patent US10792257B2, “Pharmaceutical compositions comprising safinamide” (Zambon S.P.A., priority 2016, dated 2020)
